Tests used:
Type in all cases: biochemical
PI3K gamma = target: T1, PI3K gamma (Homo sapiens, UniProt P48736); assay: PI3 kinase assay (Kinase-Glo luminescence), PI3K gamma; details: Enzymatic Data; read-out: PI3K gamma IC50 [umol]
T1 construct: PI3Kγ BV-950 p110g(D144aa)-C-Term His Tag; His tag (C); made in house; host or cells: construct from the Roger Williams lab (MRC LMB) in pVL1393; baculovirus; Tn5 (Trichoplusia ni) or TiniPro insect cells
How it was run: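 Kinase-Glo luminescence assay with 1 μM ATP and 10 μg/mL phosphatidylinositol (final), reaction started by ATP addition. IC50 from 4-parameter logistic fit of percent inhibition at 8 compound concentrations (usually 10 down to 0.003 […]).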

PI3K alfa = target: T2, PI3K alfa (Homo sapiens, UniProt P42336); assay: PI3 kinase assay (Kinase-Glo luminescence), PI3K alfa; details: Enzymatic Data; read-out: PI3K alfa IC50 [umol]
T2 construct: for the p110-a subunit (with a deletion of the first 20 amino acids); His tag (C); made in house; host or cells: baculovirus; Tn5 (Trichoplusia ni) or TiniPro insect cells
How it was run: (§1)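 Recombinant PI3K constructs (alfa 10 nM, delta 10 nM, gamma 150 nM) with 1 μM ATP and 10 μg/mL phosphatidylinositol in Tris pH 7.5, MgCl2, NaCl, CHAPS, DTT; 60 min (alfa, delta) or 120 min (gamma) at room temperature. ATP depletion read by Kinase-Glo luminescence; IC50 from 4-parameter logistic fit over 8 concentrations.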

PI3K beta = target: T3, PI3K beta (Homo sapiens, UniProt P42338); assay: PI3 kinase assay (Kinase-Glo luminescence), PI3K beta; details: Enzymatic Data; read-out: PI3K beta IC50 [umol]
T3 construct: for the full-length p110-b subunit are generated and fused by overlapping PCR; His tag (C); made in house; host or cells: baculovirus; Tn5 (Trichoplusia ni) or TiniPro insect cells
How it was run: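 PI3Kβ (25 nM, BV-949) with 10 μg/mL phosphatidylinositol in Tris pH 7.5/MgCl2/NaCl/CHAPS/DTT buffer; reaction started with 1 μM ATP, 60 min at room temperature. ATP depletion read by Kinase-Glo luminescence; 8-point dilutions, IC50 by four-parameter logistic fit.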

PI3K delta = target: T4, PI3K delta (Homo sapiens, UniProt O00329); assay: PI3 kinase assay (Kinase-Glo luminescence), PI3K delta; details: Enzymatic Data; read-out: PI3K delta IC50 [umol]
T4 construct: for the full-length p110-d subunit are generated and fused by overlapping PCR; His tag (C); made in house; host or cells: baculovirus; Tn5 (Trichoplusia ni) or TiniPro insect cells
How it was run: as §1

T3 sequence (P42338 with tags, fused parts or gaps limits assumed): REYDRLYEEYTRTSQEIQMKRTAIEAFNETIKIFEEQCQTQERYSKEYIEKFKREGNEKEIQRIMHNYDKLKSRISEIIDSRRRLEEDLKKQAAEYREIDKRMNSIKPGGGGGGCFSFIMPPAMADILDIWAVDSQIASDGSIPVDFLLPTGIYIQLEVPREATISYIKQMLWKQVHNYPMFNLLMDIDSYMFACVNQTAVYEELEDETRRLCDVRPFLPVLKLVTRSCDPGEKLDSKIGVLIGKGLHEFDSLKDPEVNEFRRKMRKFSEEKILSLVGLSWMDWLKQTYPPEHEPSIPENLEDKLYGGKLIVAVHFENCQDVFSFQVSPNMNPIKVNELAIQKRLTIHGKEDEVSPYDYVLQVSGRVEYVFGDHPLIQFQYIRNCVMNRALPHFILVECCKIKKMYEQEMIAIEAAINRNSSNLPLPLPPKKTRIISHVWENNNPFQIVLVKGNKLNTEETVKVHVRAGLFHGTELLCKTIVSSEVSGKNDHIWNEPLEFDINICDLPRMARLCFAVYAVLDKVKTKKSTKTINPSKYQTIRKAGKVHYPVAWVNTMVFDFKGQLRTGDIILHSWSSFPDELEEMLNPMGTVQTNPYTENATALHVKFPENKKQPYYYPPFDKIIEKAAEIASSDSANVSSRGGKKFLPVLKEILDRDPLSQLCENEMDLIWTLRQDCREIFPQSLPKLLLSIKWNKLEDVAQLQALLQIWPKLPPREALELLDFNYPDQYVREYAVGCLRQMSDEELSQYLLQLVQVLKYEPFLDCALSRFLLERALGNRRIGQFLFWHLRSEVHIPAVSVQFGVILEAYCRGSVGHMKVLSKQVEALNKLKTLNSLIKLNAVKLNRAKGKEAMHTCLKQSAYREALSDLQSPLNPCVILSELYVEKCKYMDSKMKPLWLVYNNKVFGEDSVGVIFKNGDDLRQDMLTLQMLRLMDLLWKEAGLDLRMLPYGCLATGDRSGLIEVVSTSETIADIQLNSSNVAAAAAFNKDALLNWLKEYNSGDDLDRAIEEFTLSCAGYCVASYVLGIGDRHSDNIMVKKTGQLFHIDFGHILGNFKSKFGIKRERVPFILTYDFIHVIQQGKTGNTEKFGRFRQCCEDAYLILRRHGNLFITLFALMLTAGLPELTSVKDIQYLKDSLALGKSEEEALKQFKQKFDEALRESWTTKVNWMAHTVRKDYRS
T1 sequence (P48736 144-1102 limits assumed): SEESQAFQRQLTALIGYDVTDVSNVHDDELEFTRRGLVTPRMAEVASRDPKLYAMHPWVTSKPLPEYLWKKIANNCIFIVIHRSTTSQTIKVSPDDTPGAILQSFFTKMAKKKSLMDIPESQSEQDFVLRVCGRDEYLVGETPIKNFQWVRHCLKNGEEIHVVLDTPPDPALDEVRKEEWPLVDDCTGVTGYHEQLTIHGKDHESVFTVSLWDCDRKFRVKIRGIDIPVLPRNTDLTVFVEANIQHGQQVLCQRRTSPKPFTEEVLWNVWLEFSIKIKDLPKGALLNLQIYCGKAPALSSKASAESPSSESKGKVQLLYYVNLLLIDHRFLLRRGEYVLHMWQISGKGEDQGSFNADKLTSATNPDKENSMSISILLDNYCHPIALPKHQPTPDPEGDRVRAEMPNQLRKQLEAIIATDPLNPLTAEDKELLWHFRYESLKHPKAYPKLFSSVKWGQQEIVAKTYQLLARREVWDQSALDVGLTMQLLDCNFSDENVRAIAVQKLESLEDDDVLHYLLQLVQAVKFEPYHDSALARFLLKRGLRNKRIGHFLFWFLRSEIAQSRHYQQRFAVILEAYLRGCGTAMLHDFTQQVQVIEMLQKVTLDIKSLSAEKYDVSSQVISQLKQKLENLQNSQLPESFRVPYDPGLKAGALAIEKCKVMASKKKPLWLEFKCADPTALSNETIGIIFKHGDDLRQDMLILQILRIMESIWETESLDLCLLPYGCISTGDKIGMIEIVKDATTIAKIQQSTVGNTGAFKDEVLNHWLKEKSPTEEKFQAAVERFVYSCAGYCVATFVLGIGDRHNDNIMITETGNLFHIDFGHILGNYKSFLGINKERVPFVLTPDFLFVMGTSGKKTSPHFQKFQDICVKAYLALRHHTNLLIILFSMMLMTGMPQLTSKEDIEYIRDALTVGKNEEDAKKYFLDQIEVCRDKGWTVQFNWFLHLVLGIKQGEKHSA
T2 sequence (P42336 with tags, fused parts or gaps limits assumed): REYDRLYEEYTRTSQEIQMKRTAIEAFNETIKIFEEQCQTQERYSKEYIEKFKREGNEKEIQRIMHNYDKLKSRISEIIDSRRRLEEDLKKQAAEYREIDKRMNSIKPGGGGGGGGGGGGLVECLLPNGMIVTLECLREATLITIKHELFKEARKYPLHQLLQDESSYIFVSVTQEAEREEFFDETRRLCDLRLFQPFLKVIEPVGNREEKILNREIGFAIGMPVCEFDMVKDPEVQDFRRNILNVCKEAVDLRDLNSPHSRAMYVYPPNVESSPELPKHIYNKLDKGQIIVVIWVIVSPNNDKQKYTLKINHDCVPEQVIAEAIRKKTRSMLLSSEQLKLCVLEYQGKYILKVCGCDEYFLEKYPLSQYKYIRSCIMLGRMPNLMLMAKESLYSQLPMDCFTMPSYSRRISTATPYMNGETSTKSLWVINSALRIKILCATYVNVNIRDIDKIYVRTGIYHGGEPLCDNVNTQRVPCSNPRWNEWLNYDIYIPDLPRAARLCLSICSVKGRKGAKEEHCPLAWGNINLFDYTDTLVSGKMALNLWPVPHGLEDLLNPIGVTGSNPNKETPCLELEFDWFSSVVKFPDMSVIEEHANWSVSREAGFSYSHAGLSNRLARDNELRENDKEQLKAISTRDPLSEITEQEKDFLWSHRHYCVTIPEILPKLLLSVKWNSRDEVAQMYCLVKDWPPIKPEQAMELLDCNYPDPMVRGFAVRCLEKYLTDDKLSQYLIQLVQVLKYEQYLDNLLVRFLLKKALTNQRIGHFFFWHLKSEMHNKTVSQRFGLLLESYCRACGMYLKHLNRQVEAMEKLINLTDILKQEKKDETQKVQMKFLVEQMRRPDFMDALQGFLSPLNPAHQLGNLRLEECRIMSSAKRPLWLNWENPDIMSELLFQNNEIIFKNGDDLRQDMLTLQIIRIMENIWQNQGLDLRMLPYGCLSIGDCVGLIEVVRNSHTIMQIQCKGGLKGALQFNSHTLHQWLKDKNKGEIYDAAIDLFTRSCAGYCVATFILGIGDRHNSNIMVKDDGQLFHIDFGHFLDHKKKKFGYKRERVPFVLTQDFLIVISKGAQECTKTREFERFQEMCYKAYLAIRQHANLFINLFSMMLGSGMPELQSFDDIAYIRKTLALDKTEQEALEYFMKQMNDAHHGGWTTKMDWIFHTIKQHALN
T4 sequence (O00329 with tags, fused parts or gaps limits assumed): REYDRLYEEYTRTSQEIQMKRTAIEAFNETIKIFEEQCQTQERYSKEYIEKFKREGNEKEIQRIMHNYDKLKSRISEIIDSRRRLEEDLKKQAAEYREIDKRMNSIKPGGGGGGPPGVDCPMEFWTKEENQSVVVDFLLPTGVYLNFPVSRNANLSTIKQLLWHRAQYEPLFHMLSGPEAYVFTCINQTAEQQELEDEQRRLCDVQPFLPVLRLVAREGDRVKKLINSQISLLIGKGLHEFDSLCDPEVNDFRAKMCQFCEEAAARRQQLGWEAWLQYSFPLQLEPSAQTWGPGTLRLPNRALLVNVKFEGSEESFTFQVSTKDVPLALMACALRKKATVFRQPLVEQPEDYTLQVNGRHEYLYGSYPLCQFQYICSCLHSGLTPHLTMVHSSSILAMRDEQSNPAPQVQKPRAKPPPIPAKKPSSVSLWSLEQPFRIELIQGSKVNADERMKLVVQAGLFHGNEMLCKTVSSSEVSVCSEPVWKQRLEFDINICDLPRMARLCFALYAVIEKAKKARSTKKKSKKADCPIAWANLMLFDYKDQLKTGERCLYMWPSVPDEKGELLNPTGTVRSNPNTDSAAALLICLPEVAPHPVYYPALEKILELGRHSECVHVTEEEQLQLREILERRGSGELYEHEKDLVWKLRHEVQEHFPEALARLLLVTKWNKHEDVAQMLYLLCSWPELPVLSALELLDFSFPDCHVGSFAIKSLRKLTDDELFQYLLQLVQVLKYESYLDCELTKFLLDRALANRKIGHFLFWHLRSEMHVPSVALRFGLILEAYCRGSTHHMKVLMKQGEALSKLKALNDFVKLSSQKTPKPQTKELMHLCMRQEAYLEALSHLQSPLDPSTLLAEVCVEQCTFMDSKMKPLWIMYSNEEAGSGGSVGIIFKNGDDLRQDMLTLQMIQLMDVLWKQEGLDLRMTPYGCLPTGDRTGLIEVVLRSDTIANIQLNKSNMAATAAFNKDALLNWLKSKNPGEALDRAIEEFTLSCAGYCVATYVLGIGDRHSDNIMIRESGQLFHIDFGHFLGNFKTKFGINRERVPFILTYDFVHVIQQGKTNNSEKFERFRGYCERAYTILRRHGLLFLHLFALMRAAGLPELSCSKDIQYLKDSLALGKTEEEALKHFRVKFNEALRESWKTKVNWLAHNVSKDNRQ

| IC50 (PI3K gamma) [nM] | IC50 (PI3K alfa) [nM] | IC50 (PI3K beta) [nM] | IC50 (PI3K delta) [nM] | Compound |
| --- | --- | --- | --- | --- |
| 405 | 8 | 178 | 6 | COc1cc(-c2cnc3ccc(-c4cnc(N)c(C(F)(F)F)c4)nn23)ccc1C(=O)N1CCN(CCN2CCOCC2)CC1 [Example 118, {4-[6-(6-Amino-5-trifluoro-methyl-pyridin-3-yl)-imidazo [1,2-b]pyridazin-3-yl]-2-methoxy-phenyl}-[4-(2-morpholin-4-yl-ethyl)-piperazin-1-yl]-methanone] |
| 406 | 9 | 137 | 13 | COc1cc(-c2cnc3ccc(-c4cnc(N)c(C(F)(F)F)c4)nn23)ccc1C(=O)N1CCN(CC(=O)N2CCOCC2)CC1 [Example 119, 2-(4-{4-[6-(6-Amino-5-trifluoro-methyl-pyridin-3-yl)-imidazo [1,2-b]pyridazin-3-yl]-2-methoxy-benzoyl}-piperazin-1-yl)-1-morpholin-4-yl-ethanone] |
| 757 | 16 | 389 | 25 | COc1cc(-c2cnc3ccc(-c4cnc(N)c(C(F)(F)F)c4)nn23)ccc1C(=O)N1CCN(c2ccccn2)CC1 [Example 120, {4-[6-(6-Amino-5-trifluoro-methyl-pyridin-3-yl)-imidazo [1,2-b]pyridazin-3-yl]-2-methoxy-phenyl}-(4-pyridin-2-yl-piperazin-1-yl)-methanone] |
| 3310 | 24 | 19 | 26 | Nc1ncc(-c2ccc3ncc(-c4ccc(S(N)(=O)=O)cc4)n3n2)cc1C(F)(F)F [Example 121, 4-[6-(6-Amino-5-trifluoro-methyl-pyridin-3-yl)-imidazo [1,2-b]pyridazin-3-yl]-benzene-sulfon-amide] |
| 1400 | 43 | 986 | 199 | Nc1ncc(-c2cnc3ccc(-c4ccc(C(=O)NCCN5CCOCC5)cc4)nn23)cc1C(F)(F)F [Example 122, 4-[3-(6-Amino-5-trifluoro-methyl-pyridin-3-yl)-imidazo [1,2-b]pyridazin-6-yl]-N-(2-morpholin-4-yl-ethyl)-benzamide] |
| 529 | 18 | 157 | 29 | Nc1ncc(-c2ccc3ncc(-c4ccc(S(=O)(=O)NCCN5CCOCC5)cc4)n3n2)cc1C(F)(F)F [Example 124, 4-[6-(6-Amino-5-trifluoro-methyl-pyridin-3-yl)-imidazo [1,2-b]pyridazin-3-yl]-N-(2-morpholin-4-yl-ethyl)-benzene-sulfonamide] |
| 490 | 26 | 182 | 55 | COc1cc(-c2cnc3ccc(-c4cnc(N)c(C(F)(F)F)c4)nn23)ccc1C(=O)NCCCN1CCOCC1 [Example 125, 4-[6-(6-Amino-5-trifluoro-methyl-pyridin-3-yl)-imidazo [1,2-b]pyridazin-3-yl]-2-methoxy-N-(3-morpholin-4-yl-propyl)-benzamide] |
| 1030 | 66 | 139 | 22 | Nc1ncc(-c2ccc3ncc(-c4cnc5c(ccn5CCN5CCOCC5)c4)n3n2)cc1C(F)(F)F [Example 126, 5-{3-[1-(2-Morpholin-4-yl-ethyl)-1H-pyrrolo [2,3-b]pyridin-5-yl]-imidazo [1,2-b]pyridazin-6-yl}-3-trifluoro-methyl-pyridin-2-ylamine] |
| 1050 | 19 | 416 | 59 | Nc1ncc(-c2ccc3ncc(-c4ccc(C(=O)N5CCN(Cc6cccnc6)CC5)cc4)n3n2)cc1C(F)(F)F [Example 127, {4-[6-(6-Amino-5-trifluoro-methyl-pyridin-3-yl)-imidazo [1,2-b]pyridazin-3-yl]-phenyl}-(4-pyridin-3-ylmethyl-piperazin-1-yl)-methanone] |
| 938 | 12 | 518 | 38 | Nc1ncc(-c2ccc3ncc(-c4ccc(C(=O)N5CCN(CCN6CCOCC6)CC5)cc4)n3n2)cc1C(F)(F)F [Example 128, {4-[6-(6-Amino-5-trifluoro-methyl-pyridin-3-yl)-imidazo [1,2-b]pyridazin-3-yl]-phenyl}-[4-(2-morpholin-4-yl-ethyl)-piperazin-1-yl]-methanone] |
| 2020 | 223 | 4140 | 676 | Nc1ccc(-c2cnc3ccc(-c4ccc(OCCCNC(=O)C5CC5)cc4)nn23)cn1 [Example 129, Cyclo-propane-carboxylic acid (3-{4-[3-(6-amino-pyridin-3-yl)-imidazo [1,2-b]pyridazin-6-yl]-phenoxy}-propyl)-amide] |
| 1300 | 347 | > 9100 | 576 | O=C(NCCCOc1ccc(-c2ccc3ncc(-c4cncc(C(F)(F)F)c4)n3n2)cc1)C1CC1 [Example 130, Cyclo-propane-carboxylic acid (3-{4-[3-(5-trifluoro-methyl-pyridin-3-yl)-imidazo [1,2-b]pyridazin-6-yl]-phenoxy}-propyl)-amide] |
| 703 | 26 | 112 | 15 | Nc1ncc(-c2ccc3ncc(-c4ccc5c(cnn5CCN5CCOCC5)c4)n3n2)cc1C(F)(F)F [Example 131, 5-{3-[1-(2-Morpholin-4-yl-ethyl)-1H-indazol-5-yl]-imidazo [1,2-b]pyridazin-6-yl}-3-trifluoro-methyl-pyridin-2-ylamine] |
| 2020 | 26 | 1260 | 52 | CN(C)CCN1CCN(C(=O)c2ccc(-c3cnc4ccc(-c5cnc(N)c(C(F)(F)F)c5)nn34)cc2)CC1 [Example 132, {4-[6-(6-Amino-5-trifluoro-methyl-pyridin-3-yl)-imidazo [1,2-b]pyridazin-3-yl]-phenyl}-[4-(2-dimethyl-amino-ethyl)-piperazin-1-yl]-methanone] |
| 1280 | 38 | 302 | 33 | COc1cc(-c2cnc3ccc(-c4cnc(N)c(C(F)(F)F)c4)nn23)ccc1C(=O)N1CCN(CCc2ccccn2)CC1 [Example 133, {4-[6-(6-Amino-5-trifluoro-methyl-pyridin-3-yl)-imidazo [1,2-b]pyridazin-3-yl]-2-methoxy-phenyl)-[4-(2-pyridin-2-yl-ethyl)-piperazin-1-yl]-methanone] |
| > 9100 | 71 | 443 | 79 | Nc1ncc(-c2ccc3ncc(-c4ccc(S(=O)(=O)NCCCN5CCOCC5)cc4)n3n2)cc1C(F)(F)F [Example 134, 4-[6-(6-Amino-5-trifluoro-methyl-pyridin-3-yl)-imidazo [1,2-b]pyridazin-3-yl]-N-(3-morpholin-4-yl-propyl)-benzene-sulfonamide] |
| 2010 | 46 | 587 | 59 | Nc1ncc(-c2ccc3ncc(-c4ccc(C(=O)N5CCN(CCc6ccccn6)CC5)cc4)n3n2)cc1C(F)(F)F [Example 135] |
| 1530 | 36 | 1200 | 52 | Nc1ncc(-c2ccc3ncc(-c4ccc(C(=O)N5CCN(Cc6ccncc6)CC5)cc4)n3n2)cc1C(F)(F)F [Example 136, {4-[6-(6-Amino-5-trifluoro-methyl-pyridin-3-yl)-imidazo [1,2-b]pyridazin-3-yl]-phenyl}-(4-pyridin-4-ylmethyl-piperazin-1-yl)-methanone] |
| > 9100 | 138 | > 9100 | 280 | O=C(NCCCOc1ccc(-c2ccc3ncc(-c4cnc5[nH]ccc5c4)n3n2)cc1)C1CC1 [Example 137, Cyclo-propane-carboxylic acid (3-{4-[3-(1H-pyrrolo[2,3-b]pyridin-5-yl)-imidazo [1,2-b]pyridazin-6-yl]-phenoxy}-propyl)-amide] |
| 712 | 37 | 135 | 27 | Nc1ncc(-c2ccc3ncc(-c4ccc5c(cnn5CCCN5CCOCC5)c4)n3n2)cc1C(F)(F)F [Example 140, 5-{3-[1-(3-Morpholin-4-yl-propyl)-1H-indazol-5-yl]-imidazo [1,2-b]pyridazin-6-yl}-3-trifluoro-methyl-pyridin-2-ylamine] |
| 7250 | 151 | 134 | 201 | NCCCOc1ccc(-c2cnc3ccc(-c4cnc(N)c(C(F)(F)F)c4)nn23)cc1 [Example 141, 5-{3-[4-(3-Amino-propoxy)-phenyl]-imidazo [1,2-b]pyridazin-6-yl}-3-trifluoro-methyl-pyridin-2-ylamine] |
